Laboratory results from patent US20060135522A1, “Tricyclic delta-opioid modulators” (priority 2004, published 2006).
Where two headings read alike, the source gives them in different places.

Tests used:
[1] = biological target: T1, mu opioid receptor (Rattus norvegicus, UniProt P33535); assay: Rat Brain Mu Opioid Receptor Binding Assay
T1 construct: from tissue; host or cells: forebrain of male Wistar rats (particulate membrane preparation)
Experimental: Procedure: Male, Wistar rats (150-250 g, VAF, Charles River, Kingston, N.Y.) were killed by CO2, and their brains were removed and placed immediately in ice cold Tris HCl buffer (50 mM, pH 7.4). The forebrains were separated from the remainder of the brain by a coronal transection, beginning dorsally at the colliculi and passing ventrally through the midbrain-pontine junction. After dissection, the forebrains were homogenized in Tris buffer in a Teflon®-glass homogenizer. The homogenate was diluted to a concentration of 1 g of forebrain tissue per 80 mL Tris and centrifuged at 39,000×g for 10 min. The pellet was resuspended in the same volume of Tris buffer containing 5 mM MgCl2 with several brief pulses from a Polytron homogenizer. This particulate preparation was used for the mu opioid binding assays.
(§1) Analysis: The data from the scintillation counter was used to calculate either the % inhibition compared to control binding (when only a single concentration of test compound was evaluated) or a Ki value (when a range of concentrations was tested). Percent inhibition was calculated as: [(total dpm-test compound dpm)/(total dpm-nonspecific dpm)]*100. Kd and Ki values were calculated using GraphPad PRISM data analysis program.

[2] = biological target: T2, delta opioid receptor (Rattus norvegicus, UniProt P33533); assay: Rat Brain Delta Opioid Receptor Binding Assay
T2 construct: from tissue; host or cells: forebrain of male Wistar rats (particulate membrane preparation)
Experimental: Procedure: Male, Wistar rats (150-250 g, VAF, Charles River, Kingston, N.Y.) were killed by CO2, and their brains were removed and placed immediately in ice cold Tris HCl buffer (50 mM, pH 7.4). The forebrains were separated from the remainder of the brain by a coronal transection, beginning dorsally at the colliculi and passing ventrally through the midbrain-pontine junction. After dissection, the forebrains were homogenized in Tris buffer in a Teflon®-glass homogenizer. The homogenate was diluted to a concentration of 1 g of forebrain tissue per 80 mL Tris and centrifuged at 39,000×g for 10 min. The pellet was resuspended in the same volume of Tris buffer containing 5 mM MgCl2 with several brief pulses from a Polytron homogenizer. This particulate preparation was used for the delta opioid binding assays. Following incubation with the delta selective peptide ligand ˜4 nM [^3H]DPDPE or 0.15 nM [^3H]naltrindole at 25° C. for 2.5 h in a 96-well plate with total volume of […], the plate contents were filtered through Wallac filtermat B sheets on a Tomtec 96-well harvester. The filters were rinsed three times with 2 mL of 10 mM HEPES (pH 7.4), and dried in a 650 W microwave oven for 1.75 min twice. To each sample area 2×50 μL of Betaplate Scint scintillation fluid (LKB) was added and the radioactivity was quantified on a LKB (Wallac) 1205 BetaPlate liquid scintillation counter.
as §1

[3] = rat forebrain membranes, [3H]DAMGO, 25° C., 2.5 h, read-out: mu (Ki)
[4] = rat forebrain membranes, [3H]DPDPE or [3H]naltrindole, 25° C., 2.5 h, read-out: delta (Ki)

T1 sequence (P33535 whole entry): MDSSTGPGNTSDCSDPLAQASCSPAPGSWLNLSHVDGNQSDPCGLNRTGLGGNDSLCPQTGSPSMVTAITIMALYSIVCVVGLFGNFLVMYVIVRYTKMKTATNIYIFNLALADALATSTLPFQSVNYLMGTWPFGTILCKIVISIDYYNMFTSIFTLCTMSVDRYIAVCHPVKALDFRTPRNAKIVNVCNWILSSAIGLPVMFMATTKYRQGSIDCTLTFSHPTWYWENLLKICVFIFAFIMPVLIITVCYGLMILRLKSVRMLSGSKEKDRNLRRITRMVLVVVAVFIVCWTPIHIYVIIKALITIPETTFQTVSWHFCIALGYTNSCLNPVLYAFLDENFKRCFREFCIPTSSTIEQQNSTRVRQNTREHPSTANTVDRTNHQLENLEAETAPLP
T2 sequence (P33533 whole entry): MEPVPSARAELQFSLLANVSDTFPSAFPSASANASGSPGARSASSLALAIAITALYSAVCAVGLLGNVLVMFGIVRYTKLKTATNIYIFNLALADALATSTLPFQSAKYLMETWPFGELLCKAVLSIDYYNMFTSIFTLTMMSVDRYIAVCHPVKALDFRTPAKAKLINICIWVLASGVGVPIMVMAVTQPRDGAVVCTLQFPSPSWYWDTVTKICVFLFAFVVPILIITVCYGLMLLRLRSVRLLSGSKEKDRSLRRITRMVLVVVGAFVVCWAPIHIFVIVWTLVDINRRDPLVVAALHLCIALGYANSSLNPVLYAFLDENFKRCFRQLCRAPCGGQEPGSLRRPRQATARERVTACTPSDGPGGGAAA

Compound	Ki [1, 3] [nM]	Ki [2] [nM]	Ki [2, 4] [nM]	Ki [1] [nM]
CC(=O)Nc1ccccc1-c1ccc2c(c1)Oc1c(O)cccc1C2C1CCNCC1 (stereo not shown) [4e, N-[2-(5-Hydroxy-9-piperidin-4-yl-9H-xanthen-3-yl)-phenyl]-acetamide]	289	38.1		
CCN(CC)C(=O)c1ccc2c(c1)Oc1c(Cl)cccc1C2C1CCNCC1 (stereo not shown) [6k, 5-Chloro-9-piperidin-4-yl-9H-xanthene-3-carboxylic acid diethylamide]	5700		274	
c1ccc(CN2CCC(C3c4ccccc4Oc4cc(-c5ccncc5)ccc43)CC2)nc1 (stereo not shown) [4h, 4-[9-(1-Pyridin-2-ylmethyl-piperidin-4-yl)-9H-xanthen-3-yl]-pyridine]		2640		2050
Oc1cccc2c1Oc1cc(-c3cccnc3)ccc1C2C1CCNCC1 (stereo not shown) [3i, 9-Piperidin-4-yl-6-pyridin-3-yl-9H-xanthen-4-ol]		242		> 10000
O=c1[nH]c(-c2ccc3c(c2)Oc2ccccc2C3C2CCNCC2)no1 (stereo not shown) [2m, 3-(9-Piperidin-4-yl-9H-xanthen-3-yl)-4H-[1,2,4]oxadiazol-5-one]		634		> 10000
COc1cccc2c1Oc1cc(-c3ccncc3)ccc1C2C1CCNCC1 (stereo not shown) [8b, 4-(5-Methoxy-9-piperidin-4-yl-9H-xanthen-3-yl)-pyridine]	> 10000		619	
c1ccc(CCN2CCC(C3c4ccccc4Oc4cc(-c5cccnc5)ccc43)CC2)cc1 (stereo not shown) [8f, 3-[9-(1-Phenethyl-piperidin-4-yl)-9H-xanthen-3-yl]-pyridine]	907		2990	
CCN(CC)C(=O)c1ccc2c(c1)Oc1ccccc1C2C1CCN(CCc2ccccc2)CC1 (stereo not shown) [12a, 9-(1-Phenethyl-piperidin-4-yl)-9H-xanthene-3-carboxylic acid diethylamide]		3830		976
C=CCN1CCC(C2c3ccccc3Oc3cc(-c4ccccc4NC(C)=O)ccc32)CC1 (stereo not shown) [6g, N-{2-[9-(1-Allyl-piperidin-4-yl)-9H-xanthen-3-yl]-phenyl}-acetamide]	9630		1090	
c1ccc2c(c1)Oc1cc(-c3ccncc3)ccc1C2C1CCNCC1 (stereo not shown) [2h, 4-(9-Piperidin-4-yl-9H-xanthen-3-yl)-pyridine]	> 10000		4530	
O=C(c1ccc2c(c1)Oc1ccccc1C2C1CCNCC1)N1CC[C@H](O)C1 (stereo partly drawn) [4n, (3-(S)-Hydroxy-pyrrolidin-1-yl)-(9-piperidin-4-yl-9H-xanthen-3-yl)-methanone]	> 10000		434	
CCN(CC)C(=O)c1ccc2c(c1)Oc1c(OC)cccc1C2C1CCNCC1 (stereo not shown) [6c, 5-Methoxy-9-piperidin-4-yl-9H-xanthene-3-carboxylic acid diethylamide]	> 10000		277	
c1ccc2c(c1)Oc1cc(-c3ccncc3)ccc1C2C1CCN(Cc2ccoc2)CC1 (stereo not shown) [3h, 4-[9-(1-Furan-3-ylmethyl-piperidin-4-yl)-9H-xanthen-3-yl]-pyridine]		791		4260
c1ccc(CN2CCC(C3c4ccccc4Oc4cc(-c5cccnc5)ccc43)CC2)cc1 (stereo not shown) [7f, 3-[9-(1-Benzyl-piperidin-4-yl)-9H-xanthen-3-yl]-pyridine]		783		3120
CCN(CC)C(=O)c1ccc2c(c1)Oc1ccccc1C2C1CCN(CC2CC2)CC1 (stereo not shown) [14a, 9-(1-Cyclopropylmethyl-piperidin-4-yl)-9H-xanthene-3-carboxylic acid diethylamide]	6990		1080	
CCN(CC)C(=O)c1ccc2c(c1)Oc1ccccc1C2C1CCN(Cc2ccoc2)CC1 (stereo not shown) [9a, 9-(1-Furan-3-ylmethyl-piperidin-4-yl)-9H-xanthene-3-carboxylic acid diethylamide]		141		51000
CC(=O)Nc1ccccc1-c1ccc2c(c1)Oc1ccccc1C2C1CCNCC1 (stereo not shown) [2g, N-[2-(9-Piperidin-4-yl-9H-xanthen-3-yl)-phenyl]-acetamide]	> 10000		1020	
CC(=O)Nc1ccccc1-c1ccc2c(c1)Oc1ccccc1C2C1CCN(CCc2ccccc2)CC1 (stereo not shown) [5g, N-{2-[9-(1-Phenethyl-piperidin-4-yl)-9H-xanthen-3-yl]-phenyl}-acetamide]	995		4570	

Compound	Ki [1, 3] [nM]	Ki [2] [nM]	Ki [2, 4] [nM]	Ki [1] [nM]
CCN(CC)C(=N)c1ccc2c(c1)Oc1ccccc1C2C1CCNCC1 (stereo not shown) [1p, N,N-Diethyl-9-piperidin-4-yl-9H-xanthene-3-carboxamidine]		51.1		> 10000
CCNC(=O)c1ccc2c(c1)Oc1c(O)cccc1C2C1CCNCC1 (stereo not shown) [5d, 5-Hydroxy-9-piperidin-4-yl-9H-xanthene-3-carboxylic acid ethylamide]	876		209	
O=C(c1ccc2c(c1)Oc1ccccc1C2C1CCN(Cc2ccoc2)CC1)N1CC[C@H](O)C1 (stereo partly drawn) [5n, [9-(1-Furan-3-ylmethyl-piperidin-4-yl)-9H-xanthen-3-yl]-(3-(S)-hydroxy-pyrrolidin-1-yl)-methanone]	> 10000		177	
COc1cccc2c1Oc1cc(-c3ccccc3NC(C)=O)ccc1C2C1CCNCC1 (stereo not shown) [9b, N-[2-(5-Methoxy-9-piperidin-4-yl-9H-xanthen-3-yl)-phenyl]-acetamide]	4450		761	
O=C(c1ccc2c(c1)Oc1ccccc1C2C1CCN(CCc2ccccc2)CC1)N1CC[C@H](O)C1 (stereo partly drawn) [6n, (3-(S)-Hydroxy-pyrrolidin-1-yl)-[9-(1-phenethyl-piperidin-4-yl)-9H-xanthen-3-yl]-methanone]	3400		7050	
c1cncc(-c2ccc3c(c2)Oc2ccccc2C3C2CCN(Cc3ccoc3)CC2)c1 (stereo not shown) [5f, 3-[9-(1-Furan-3-ylmethyl-piperidin-4-yl)-9H-xanthen-3-yl]-pyridine]	3160		303	
CCN(CC)C(=O)c1ccc2c(c1)Oc1ccccc1C2C1CCN(Cc2ncc[nH]2)CC1 (stereo not shown) [13a, 9-[1-(1H-Imidazol-2-ylmethyl)-piperidin-4-yl]-9H-xanthene-3-carboxylic acid diethylamide]		106		1700
CC(=O)Nc1ccccc1-c1ccc2c(c1)Oc1ccccc1C2C1CCN(Cc2ccoc2)CC1 (stereo not shown) [3g, N-{2-[9-(1-Furan-3-ylmethyl-piperidin-4-yl)-9H-xanthen-3-yl]-phenyl}-acetamide]	4440	100		
CCN(CC)C(=O)c1ccc2c(c1)Oc1ccccc1C2C1CCN(Cc2cccs2)CC1 (stereo not shown) [15a, 9-(1-Thiophen-2-ylmethyl-piperidin-4-yl)-9H-xanthene-3-carboxylic acid diethylamide]		450		4120
c1ccc2c(c1)Oc1cc(-c3nnn[nH]3)ccc1C2C1CCN(Cc2ccoc2)CC1 (stereo not shown) [4l, 1-Furan-3-ylmethyl-4-[3-(1H-tetrazol-5-yl)-9H-xanthen-9-yl]-piperidine]	6320		498	
CCN(CC)C(=O)c1ccc2c(c1)Oc1ccccc1C2C1CCN(Cc2ccccc2)CC1 (stereo not shown) [10a, 9-(1-Benzyl-piperidin-4-yl)-9H-xanthene-3-carboxylic acid diethylamide]		75		5370
c1cncc(-c2ccc3c(c2)Oc2ccccc2C3C2CCNCC2)c1 (stereo not shown) [4f, 3-(9-Piperidin-4-yl-9H-xanthen-3-yl)-pyridine]	1000		161	
c1ccc2c(c1)Oc1cc(-c3nnn[nH]3)ccc1C2C1CCNCC1 (stereo not shown) [3l, 4-[3-(1H-Tetrazol-5-yl)-9H-xanthen-9-yl]-piperidine]	> 10000		768	
CC(=O)Nc1ccccc1-c1ccc2c(c1)Oc1ccccc1C2C1CCN(Cc2ccccn2)CC1 (stereo not shown) [4g, N-{2-[9-(1-Pyridin-2-ylmethyl-piperidin-4-yl)-9H-xanthen-3-yl]-phenyl}-acetamide]	6980		167	
CCN(CC)C(=O)c1ccc2c(c1)Oc1ccccc1C2C1CCN(C)CC1 (stereo not shown) [16a, 9-(1-Methyl-piperidin-4-yl)-9H-xanthene-3-carboxylic acid diethylamide]		1140		35200
CCN(CC)C(=O)c1ccc2c(c1)Oc1ccccc1C2C1CCN(Cc2ccccn2)CC1 (stereo not shown) [11a, 9-(1-Pyridin-2-ylmethyl-piperidin-4-yl)-9H-xanthene-3-carboxylic acid diethylamide]		2700		15100
COc1cccc2c1Oc1cc(-c3cccnc3)ccc1C2C1CCNCC1 (stereo not shown) [7b, 3-(5-Methoxy-9-piperidin-4-yl-9H-xanthen-3-yl)-pyridine]	> 10000		318	
